Results published in US4673692A, “Diphenylmethylimine derivatives, their compositions and pharmaceutical uses” (Teikoku Hormone Mfg. Co., Ltd., priority 1984, dated 1987).

Key:
carrageenan paw edema = assay: Anti-inflammatory activity: carrageenan-induced hind paw edema; format: in vivo, Male Wistar rats; details: 10 mg/kg, p.o.; carrageenan 1 h after dosing, volume measured 3 h later; 5 rats per group
Method: Male Wistar rats weighing 120 to 150 g which had been fasted for 24 hours were used in groups each consisting of 5 rats. In each group, the volumes of the right hind paw were measured by a volume differential meter (made by Ugo Basile Company), and each of the test compounds was suspended in an aqueous solution of 0.5% of carboxymethyl cellulose and 2.0% of Tween 80, and administered orally through a tube. After one hour from the administration, […] suspension of carrageenan in distilled water was subcutaneously injected into the plantar tissues of the right hind paw. Three hours later, the volumes of the right hind paw were again measured. The increase in volume of the right hind paw of each rat in each group (the volume of edema) was measured. The percent edema inhibition was calculated in accordance with the following equation, and the results are shown in Tale 1.

cyclooxygenase = assay: Cyclooxygenase inhibiting action (formation of HHT) in white blood cells from rat pleural exudate; format: cell-based; details: 14C arachidonic acid, A23187, 2 minutes, read-out: concentration inhibiting 50% of the formation of HHT
Method: (§1) The actions of the compounds of this invention to inhibit 5-lipoxygenase and cyclooxygenase activities were measured in accordance with the method of Siegel et al. [Prostaglandins, Vol. 21, page 123 (1981)].
(§2) The exudate was extracted from the pleural cavity of a rat with carrageenan-induced pleurisy. White blood cells from the exudate were suspended in 50 mM Tris-HCl buffer (pH 7.4) containing 100 mM sodium chloride and 1 mM calcium chloride. To a fixed amount of the white blood cell suspension were added a test compound, ^14 C arachidonic acid and a calcium ionophore (A23187), and the mixture was incubated for 2 minutes. […] The radioactivity of each of the fractions was measured by a liquid scintillation counter, and the percentage of the radioactivity of each fraction based on the total radioactivity was calculated (the ratio of formation). The inhibition ratio of the test compound against the synthesis ability of each fraction was determined by using the ratio of formation as an index.
(§3) The lipoxygenase activity was determined by using the formation of 5S-hydroxy-6,8,11,14-eicosatetraenoic acid (5-HETE) and 5S,12R-dihydroxy-6,8,10,14-eicosatetraenoic acid (5,12-diHETE) as indices. The cyclooxygenase activity was determined by using the formation of 12-hydroxyheptadecatrienoic acid (HHT) as an index. […]

granuloma formation = assay: Inhibitory effect on granuloma formation (filter paper implantation); format: in vivo, Wistar strain male rats; details: Rattus norvegicus, po, 168 h; once a day for 7 days; p<0.001, n=7-8; read-out: dose significantly decreasing the dry weight of granuloma
Method: Wistar strain male rats were used. Under anesthesia with hexobarbital-Na (100 mg/kg, i.p.), the hair of the back of each rat was removed. Filter paper pieces prepared in tablet form (Toyo Filter Paper, No. 85K, 9 mm diameter) sterilized under pressure were implanted subcutaneously on the left and right sides of the back, and oily procaine penicillin G (a product of Banyu Pharmaceutical Co., Ltd.; 300,000 units/ml) was intramuscularly injected in an amount of 0.25 ml.
After the implantation of the filter paper pieces, the test compound was orally administered once a day for 7 consecutive days including the day of implantation. On the day next to the day of the final administration, the filter paper pieces and granuloma formed around them were excised, and dried at about 60° C. for 24 hours. Their weight was measured. The weight of the filter paper pieces was subtracted, and the balance was defined as the dry amount of glanuloma.

stomach = assay: Ulcerogenic activity; format: in vivo, male Wistar rats; details: 300 mg/kg, p.o.; 4 hours after dosing; fasted rats
Method: The test compound was orally administered by the same way as in the test on anti-inflammatory activity to male Wistar rats weighing 120 to 150 g which had been fasted for 24 hours. Four hours later, they were killed with ether.

[1] = tested on: adjuvant-induced arthritis; assay: Preventive effect on adjuvant-induced arthritis; format: in vivo, Sprague-Dawley strain female rats
Method: Sprague-Dawley strain female rats, 6 weeks old, were used. Killed and dried M. butyricum (Difco) were suspended (6 mg/ml) in light liquid paraffin, and the suspension was sterilized under pressure to form Freund's complete adjuvant. 0.1 ml of the Freund's complete adjuvant was injected subcutaneously into the right hind paws of the animals to induce arthritis. After the injection of the Freund's complete adjuvant, the test compound was orally administered once a day for 21 consecutive days including the day of injection. The volumes of the left and right hind paws were measured by using the device devised by Fujihira [Eiichi Fujihira: Oyo Yakuri 5, 169-182 (1971)], and the increases in volume from before the injection of the adjuvant was measured and used as an index of swelling. Changes in swelling after the stopping of drug administration were also examined. The animals were used in groups each consisting of 10 members.

5-lipoxygenase = molecular target: T1, 5-lipoxygenase (Rattus norvegicus, UniProt P12527); assay: 5-lipoxygenase inhibiting action (formation of 5-HETE and 5,12-diHETE) in white blood cells from rat pleural exudate; format: cell-based; details: 14C arachidonic acid, A23187, 2 minutes, read-out: concentration inhibiting 50% of the formation of 5-HETE
T1 construct: endogenous in cells; host or cells: white blood cells from the pleural exudate of rats with carrageenan-induced pleurisy
T1 sequence (P12527 1-673): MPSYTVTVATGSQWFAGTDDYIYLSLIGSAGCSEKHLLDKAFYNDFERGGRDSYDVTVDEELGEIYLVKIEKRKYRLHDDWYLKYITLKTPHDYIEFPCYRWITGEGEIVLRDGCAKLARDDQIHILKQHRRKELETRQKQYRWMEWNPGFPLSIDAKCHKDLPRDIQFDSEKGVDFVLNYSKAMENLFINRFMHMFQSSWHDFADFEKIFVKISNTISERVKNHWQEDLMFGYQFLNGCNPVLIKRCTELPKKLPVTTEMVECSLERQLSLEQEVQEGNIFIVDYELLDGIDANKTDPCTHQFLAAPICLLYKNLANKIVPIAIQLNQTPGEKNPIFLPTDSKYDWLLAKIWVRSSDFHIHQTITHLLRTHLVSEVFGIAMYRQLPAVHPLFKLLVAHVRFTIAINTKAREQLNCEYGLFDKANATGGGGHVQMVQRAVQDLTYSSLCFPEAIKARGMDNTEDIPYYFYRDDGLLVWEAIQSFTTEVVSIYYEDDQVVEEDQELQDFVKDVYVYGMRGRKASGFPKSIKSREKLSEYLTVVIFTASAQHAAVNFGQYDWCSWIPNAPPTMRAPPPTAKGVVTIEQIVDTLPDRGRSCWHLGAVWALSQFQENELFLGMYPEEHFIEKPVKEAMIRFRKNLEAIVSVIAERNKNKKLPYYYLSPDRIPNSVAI
Method: as §1, §2, §3

[2] = Pharmacological actions of previously disclosed compound

SMILES: CC(C)(C)c1cc(C(=NO)c2ccccc2)cc(C(C)(C)C)c1O [A, 3,5-di-t-butyl-4-hydroxybenzophenone oxime]
- Percent inhibition (edema) (carrageenan paw edema): 26.7%
- IC50 (cyclooxygenase): 1.25 µM
- minimal effective dose (granuloma formation): ≥ 3 mg/kg
- gastric trouble (stomach): no gastric trouble
- minimal effective dose ([1]; Rattus norvegicus, po, 504 h, once a day for 21 days, p<0.05, n=10, read-out: dose significantly inhibiting the development of adjuvant-induced arthritis): ≥ 3 mg/kg
- rebound phenomenon in swelling after the stopping of drug administration ([1]; after 21 days of oral administration): No rebound phenomenon was noted
- IC50 (5-lipoxygenase): 6.2 µM

SMILES: CCC(=O)ON=C(c1ccccc1)c1cc(C(C)(C)C)c(O)c(C(C)(C)C)c1 [C, 3,5-di-t-butyl-4-hydroxybenzophenone O-propionyloxime]
- Percent inhibition (edema) (carrageenan paw edema): 23.6%

SMILES: CC(C)(C)c1cc(C(=NN)c2ccccc2)cc(C(C)(C)C)c1O [D, 3,5-di-t-butyl-4-hydroxybenzophenone hydrazone]
- Percent inhibition (edema) (carrageenan paw edema): 21.0%

SMILES: CC(=O)ON=C(c1ccccc1)c1cc(C(C)(C)C)c(O)c(C(C)(C)C)c1 [B, 3,5-di-t-butyl-4-hydroxybenzophenone O-acetyloxime]
- Percent inhibition (edema) (carrageenan paw edema): 22.7%

SMILES: CON=C(c1ccccc1)c1cc(C(C)(C)C)c(O)c(C(C)(C)C)c1
- pharmacological actions such as anti-inflammatory, analgesic or anti-rheumatic activity [2]: does not substantially show pharmacological actions
